Experimental data as given in US20080200474A1, “NOVEL FLUNARIZINE SALT FORMS AND METHODS OF MAKING AND USING THE SAME” (TRANSFORM PHARMACEUTICALS, INC., priority 2007, published 2008).
Where a name gives a salt, the structure may show the parent alone. Read-outs that look alike come from different tables or passages of the source.

What was measured:
[1] = Excipient compatibility, solid mixes sucrose:crospovidone:flunarizine salt 94:5:1 stored at 60 degrees C.; format: physicochemical; conditions: sucrose:crospovidone:salt 94:5:1 (weight %), wetted and dried, seal crimped, stored at 60 degrees C. for 2 weeks
Protocol: Two solid mixes, one containing sucrose:crospovidone:flunarizine dihydrochloride 94:5:1 (weight %), and the other containing sucrose:crospovidone:flunarizine benzoate 94:5:1 (weight %), were prepared in mortars, transferred to separate vials and a small amount of water was added until a very viscous syrup was formed. The samples were left to air dry at room temperature for two days followed by one day under vacuum at 40 degrees C. After the processing was finished, pictures of the samples were taken. Vials with identical content to the ones pictured were seal crimped and stored at 60 degrees C. for 2 weeks. After this period, their pictures were taken.

[2] = format: physicochemical
Excerpt: Dynamic vapor sorption (DVS) analysis was completed on flunarizine benzoate from about 0 to about 95 percent relative humidity at about 25 degrees C. (See FIG. 5). […] This is characteristic of a nonhygroscopic material.
Dynamic vapor sorption (DVS) analysis was completed on flunarizine fumarate from about 0 to about 95 percent relative humidity at about 25 degrees C. (See FIG. 9). […] This is characteristic of a nonhygroscopic material.
Flunarizine dihydrochloride is hygroscopic. The dihydrochloride salt rapidly adsorbs water (greater than 7 percent change in mass) at relative humidity levels above about 60 percent. The release of the adsorbed water is difficult upon desorption. In comparison, the flunarizine benzoate salt of the present invention adsorbs relatively little water (less than 1 percent change in mass) at relative humidity levels up to about 95 percent.

Compound	degradation in excipient mix (comparison of images) [1]	release of the adsorbed water upon desorption ([2]; DVS desorption, about 25 degrees C.)	hygroscopicity (DVS) ([2]; about 25 degrees C.)	water adsorption, change in mass ([2]; relative humidity levels above about 60 percent, about 25 degrees C.)	stability over relative humidity (DVS) [2]	water adsorption, change in mass ([2]; relative humidity levels up to about 95 percent)
Fc1ccc(C(c2ccc(F)cc2)N2CCN(C/C=C/c3ccccc3)CC2)cc1 [flunarizine dihydrochloride, reference compound]	substantially more degradation	difficult	hygroscopic	greater than 7%		
1-cinnamyl-4-(di-p-fluorobenzhydryl)piperazine fumarate [flunarizine fumarate]			nonhygroscopic		stable from about 0% to about 95% relative humidity	
Fc1ccc(C(c2ccc(F)cc2)N2CCN(CC=Cc3ccccc3)CC2)cc1.O=C(O)c1ccccc1 [flunarizine benzoate, 1-cinnamyl-4-(di-p-fluorobenzhydryl)piperazine benzoate]	substantially more degradation had occurred in the mixes containing flunarizine dihydrochloride than those containing flunarizine benzoate		nonhygroscopic		stable from about 0% to about 95% relative humidity	less than 1%
